The results in this text go back to patent publication US11730720B2, “ALK5 inhibitors” (THERAVANCE BIOPHARMA R&D IP, LLC, priority 2018, dated 2023).

SMILES strings stand for the structures. pKi: −log10 of the molar value.

The test system of assay [1] is TGF-β-stimulated SMAD3 phosphorylation in BEAS-2B cells. The assay can be described thus: Cellular ALK5 potency assay, inhibition of TGF-β stimulated pSMAD3 formation in BEAS-2B cells. It is filed as cell-based. To be noted: Homo sapiens, inhibition of TGF-β (10 ng/mL) stimulated pSMAD3 formation, 1 hour compound incubation, read-out: BEAS2B pIC50 (converted). An outline of the steps:
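Phospho-SMAD3 was quantified by AlphaLISA in lysates of human lung epithelial BEAS-2B cells. Compound was added 1 h (37 °C, HEPES/BSA-supplemented HBSS) before a 30 min challenge with 10 ng/mL TGF-β. Values are pIC50 relative to stimulated cells without compound.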

Assay [2] deals with T1, recombinant human ALK5 (TGF-βR1) protein (Homo sapiens, UniProt P36897).
T1 construct: purchased Life Technologies PR9075A
T1 sequence (P36897 34-503): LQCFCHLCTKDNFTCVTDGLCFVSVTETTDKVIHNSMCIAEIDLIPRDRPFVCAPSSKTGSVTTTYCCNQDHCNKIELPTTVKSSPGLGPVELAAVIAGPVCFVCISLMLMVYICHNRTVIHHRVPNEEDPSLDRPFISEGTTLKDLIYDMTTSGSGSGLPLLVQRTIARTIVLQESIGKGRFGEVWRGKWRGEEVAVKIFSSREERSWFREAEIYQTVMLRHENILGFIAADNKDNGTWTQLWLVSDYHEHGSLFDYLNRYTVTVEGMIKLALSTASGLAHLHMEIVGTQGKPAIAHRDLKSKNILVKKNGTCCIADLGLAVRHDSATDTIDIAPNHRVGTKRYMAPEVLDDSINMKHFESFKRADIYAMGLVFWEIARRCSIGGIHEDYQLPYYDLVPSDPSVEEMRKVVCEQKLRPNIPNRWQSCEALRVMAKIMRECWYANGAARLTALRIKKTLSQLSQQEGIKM
The assay can be described thus: Biochemical ALK5 (TGF-βR1) assay to measure pKi (LANCE Ultra ULight kinase assay). To be noted: apparent pKi, converted from pIC50 using the Cheng-Prusoff equation. The essentials: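 TR-FRET kinase format: compound dose range 10 μM–25 pM equilibrated 60 min with human ALK5 and ULight-labelled topoisomerase 2α peptide in HEPES/MgCl2 buffer pH 7.5 with DTT. Reaction started with ATP (125 μM stock, 5× final), 60 min at 37° C, stopped with EDTA/Eu-anti-phospho antibody; pKi derived from pIC50 via Cheng-Prusoff.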
In general terms: In TR-FRET formats the signal depends on donor and acceptor labels being close together.

In general, pKi refers to the negative decadic logarithm of the Ki, by convention in mol/L. For the compound `Fc1ccc(Cl)cc1-c1nc2ccccn2c1-c1ccc2ncc(-c3cnc4n3CCNC4)cc2n1` [Compound 3-8, 2-[2-(5-chloro-2-fluoro-phenyl)imidazo[1,2-a]pyridin-3-yl]-7-(5,6,7,8-tetrahydroimidazo[1,2-a]pyrazin-3-yl)-1,5-naphthyridine], the IC50 in assay [1] was 25.1 to 158 nM. The pKi in assay [2] was 9.50 to 10.40.
For `Fc1ccc(Cl)cc1-c1nc2ccccn2c1-c1ccc2ncc(-c3nc4n(n3)CCNC4)cc2n1` [Compound 3-9, 2-[2-(5-chloro-2-fluoro-phenyl)imidazo[1,2-a]pyridin-3-yl]-7-(5,6,7,8-tetrahydro-[1,2,4]triazolo[1,5-a]pyrazin-2-yl)-1,5-naphthyridine], in that order: 25.1 to 158 nM and 9.50 to 10.40.
For `Fc1ccc(Cl)cc1-c1nc2ccccn2c1-c1ccc2ncc(-c3cn[nH]c3)cc2n1` [Compound 3-10, 2-[2-(5-chloro-2-fluoro-phenyl)imidazo[1,2-a]pyridin-3-yl]-7-(1H-pyrazol-4-yl)-1,5-naphthyridine], the IC50 in assay [1] is 1580 to 10000 nM. In assay [2], the pKi was 8.50 to 9.40.
For `Fc1ccc(Cl)cc1-c1nnn(Cc2ccccc2)c1-c1ccc2ncccc2n1` [Compound 4-1, 2-(1-benzyl-4-(5-chloro-2-fluorophenyl)-1H-1,2,3-triazol-5-yl)-1,5-naphthyridine], in that order: 200 to 1260 nM and 8.50 to 9.40.
For `COC(=O)c1cnc2ccc(-c3c(-c4cc(Cl)ccc4F)nnn3Cc3ccccc3)nc2c1` [Compound 4-2, methyl 6-[3-benzyl-5-(5-chloro-2-fluoro-phenyl)triazol-4-yl]-1,5-naphthyridine-3-carboxylate], in that order: 200 to 1260 nM and 7.50 to 8.40.
In the case of `COC(=O)c1cnc2ccc(-c3[nH]nnc3-c3cc(Cl)ccc3F)nc2c1` [Compound 5-1, methyl 6-(4-(5-chloro-2-fluorophenyl)-1H-1,2,3-triazol-5-yl)-1,5-naphthyridine-3-carboxylate], the IC50 in assay [1] was 25.1 to 158 nM. The pKi in assay [2] was 8.50 to 9.40.
In the same order, the values of `Fc1ccc(Cl)cc1-c1[nH]nnc1-c1ccc2ncc(-c3c[nH]nc3C(F)(F)F)cc2n1` [Compound 5-2, 2-(5-(5-chloro-2-fluorophenyl)-1H-1,2,3-triazol-4-yl)-7-(3-(trifluoromethyl)-1H-pyrazol-4-yl)-1,5-naphthyridine] are 25.1 to 158 nM and 7.50 to 8.40.
For `CC(C)N1CCN(CCNc2cnc3ccc(-c4c[nH]nc4-c4cc(Cl)c(F)cc4F)nc3c2)CC1` [Compound 6-1, 6-(3-(5-chloro-2,4-difluorophenyl)-1H-pyrazol-4-yl)-N-(2-(4-isopropylpiperazin-1-yl)ethyl)-1,5-naphthyridin-3-amine], the IC50 in assay [1] was 25.1 to 158 nM. For the same compound, the pKi in assay [2] was 9.50 to 10.40.
In the same order, the values of `CN1CCN(CCNc2cnc3ccc(-c4c[nH]nc4-c4cc(Cl)c(F)cc4F)nc3c2)CC1` [Compound 6-2, 6-[3-(5-chloro-2,4-difluoro-phenyl)-1H-pyrazol-4-yl]-N-[2-(4-methylpiperazin-1-yl)ethyl]-1,5-naphthyridin-3-amine] are ≤ 20 nM and 9.50 to 10.40.
In the same order, the values of `CCN1CCN(CCNc2cnc3ccc(-c4c[nH]nc4-c4cc(Cl)c(F)cc4F)nc3c2)CC1` [Compound 6-3, 6-[3-(5-chloro-2,4-difluoro-phenyl)-1H-pyrazol-4-yl]-N-[2-(4-ethylpiperazin-1-yl)ethyl]-1,5-naphthyridin-3-amine] are ≤ 20 nM and 9.50 to 10.40.
Consider `Fc1cc(F)c(-c2n[nH]cc2-c2ccc3ncc(NCC4CN5CCN4CC5)cc3n2)cc1Cl` (stereo not drawn) [Compound 6-4, 6-[3-(5-chloro-2,4-difluoro-phenyl)-1H-pyrazol-4-yl]-N-(1,4-diazabicyclo[2.2.2]octan-2-ylmethyl)-1,5-naphthyridin-3-amine], for which the IC50 in assay [1] is 25.1 to 158 nM. The pKi in assay [2] is 9.50 to 10.40.
On to `CC1(C)CCCN1CCNc1cnc2ccc(-c3c[nH]nc3-c3cc(Cl)c(F)cc3F)nc2c1` [Compound 6-5, 6-[3-(5-chloro-2,4-difluoro-phenyl)-1H-pyrazol-4-yl]-N-[2-(2,2-dimethylpyrrolidin-1-yl)ethyl]-1,5-naphthyridin-3-amine], for which the IC50 in assay [1] was 25.1 to 158 nM. For the same compound, in assay [2], the pKi is 9.50 to 10.40.
In the same order, the values of `Fc1cc(F)c(-c2n[nH]cc2-c2ccc3ncc(-c4cn[nH]c4)cc3n2)cc1Cl` [Compound 6-6, 2-[3-(5-chloro-2,4-difluoro-phenyl)-1H-pyrazol-4-yl]-7-(1H-pyrazol-4-yl)-1,5-naphthyridine] are ≤ 20 nM and 9.50 to 10.40.
With `Fc1cc(F)c(-c2n[nH]cc2-c2ccc3ncc(NCCN4CCCC4)cc3n2)cc1Cl` [Compound 6-7, 6-[3-(5-chloro-2,4-difluoro-phenyl)-1H-pyrazol-4-yl]-N-(2-pyrrolidin-1-ylethyl)-1,5-naphthyridin-3-amine], the IC50 in assay [1] is 25.1 to 158 nM. The pKi in assay [2] was 8.50 to 9.40.
Take `Fc1cc(F)c(-c2n[nH]cc2-c2ccc3ncc(NCC4CCCCN4)cc3n2)cc1Cl` (stereo not drawn) [Compound 6-8, 6-[3-(5-chloro-2,4-difluoro-phenyl)-1H-pyrazol-4-yl]-N-(2-piperidylmethyl)-1,5-naphthyridin-3-amine]: the IC50 in assay [1] was 25.1 to 158 nM. In addition, in assay [2], the pKi was 8.50 to 9.40.
For `Fc1cc(F)c(-c2n[nH]cc2-c2ccc3ncc(NCCN4CCNCC4)cc3n2)cc1Cl` [Compound 6-9, 6-[3-(5-chloro-2,4-difluoro-phenyl)-1H-pyrazol-4-yl]-N-(2-piperazin-1-ylethyl)-1,5-naphthyridin-3-amine], in that order: 25.1 to 158 nM and 9.50 to 10.40.
In the same order, the values of `Fc1cc(F)c(-c2n[nH]cc2-c2ccc3ncc(NC4CCNCC4)cc3n2)cc1Cl` [Compound 6-10, 6-[3-(5-chloro-2,4-difluoro-phenyl)-1H-pyrazol-4-yl]-N-(4-piperidyl)-1,5-naphthyridin-3-amine] are 200 to 1260 nM and 9.50 to 10.40.
In the same order, the values of `Fc1cc(F)c(-c2n[nH]cc2-c2ccc3ncc(NC[C@H]4CCCCN4)cc3n2)cc1Cl` [Compound 6-11, 6-[3-(5-chloro-2,4-difluoro-phenyl)-1H-pyrazol-4-yl]-N-[[(2R)-2-piperidyl]methyl]-1,5-naphthyridin-3-amine] are 25.1 to 158 nM and 8.50 to 9.40.
With `Fc1cc(F)c(-c2n[nH]cc2-c2ccc3ncc(NC[C@@H]4CCCCN4)cc3n2)cc1Cl` [Compound 6-12, 6-[3-(5-chloro-2,4-difluoro-phenyl)-1H-pyrazol-4-yl]-N-[[(2S)-2-piperidyl]methyl]-1,5-naphthyridin-3-amine], the IC50 in assay [1] was 25.1 to 158 nM. The pKi in assay [2] is 8.50 to 9.40.
`CC(C)(C)N1CCN(CCNc2cnc3ccc(-c4c[nH]nc4-c4cc(Cl)c(F)cc4F)nc3c2)CC1` [Compound 6-13, N-(2-(4-(tert-butyl)piperazin-1-yl)ethyl)-6-(3-(5-chloro-2,4-difluorophenyl)-1H-pyrazol-4-yl)-1,5-naphthyridin-3-amine]: the IC50 in assay [1] was 25.1 to 158 nM. In addition, the pKi in assay [2] is 9.50 to 10.40.
Turning to `Fc1cc(F)c(-c2n[nH]cc2-c2ccc3ncc(N4CC(N5CCCCC5)C4)cc3n2)cc1Cl` [Compound 6-14, 2-(3-(5-chloro-2,4-difluorophenyl)-1H-pyrazol-4-yl)-7-(3-(piperidin-1-yl)azetidin-1-yl)-1,5-naphthyridine], in assay [1], the IC50 is 25.1 to 158 nM. The pKi in assay [2] was 9.50 to 10.40.
